Patent publication US20210030703A1, “USE OF CALORIC RESTRICTION MIMETICS FOR POTENTIATING CHEMO-IMMUNOTHERAPY FOR THE TREATMENT OF CANCERS” (INSERM (INSTITUT NATIONAL DE LA SANTÉ ET DE LA RECHERCHE …, priority 2018, published 2021)

What was measured:
Format in all cases: in vivo, C57B1/6 mice
whole MCA205 tumors = assay: RNA-seq analyses of whole tumors; conditions: day 3 post-chemotherapy (MTX); data not shown
MCA205 fibrosarcoma = assay: Subcutaneous MCA205 fibrosarcoma: tumor growth, cure and survival under chemo-immunotherapy
PD-1 = PD-1 expression in tumors; conditions: MTX alone or together with fasting or CRMs; data not shown
Procedure: 3 or 11 days post-chemotherapy (d3 or d11), mice were euthanized and the tumors were withdrawn and placed in gentleMACS C tubes (ref 130-096-334 from Miltenyi Biotec™) previously filled with 1 ml of DMEM or RPMI medium, and immediately put on ice. After a mechanical (with scissors) and chemical digestion (thanks to the tumor dissociation kit and the gentleMACS Octo Dissociator, ref 130-096-730 and 130-096-427, respectively, from Miltenyi Biotec™), tumors were filtered (using MACS smartstrainers […], ref 130-110-916 from Miltenyi Biotec™), washed twice with PBS and distributed in a 96-wells round bottom plate.
Then, cells were stained with a live dead dye (ref L34959 from ThermoFisher Scientific™) and an FCblock receptor targeting antibody. […] Finally, cells were resuspended in FACS buffer and analyzed on a flow cytometer BD LSR II.

CTLA-4 = CTLA-4 expression in tumors; conditions: MTX alone or together with fasting or CRMs; data not shown

Compound | Evidence of local immunostimulation (whole MCA205 tumors) | Cure rate (MCA205 fibrosarcoma; CRM added to OXA+PD-1 blockade) | Cured mice (MCA205 fibrosarcoma; CRM added to OXA+PD-1 blockade) | Efficacy of OXA and anti-PD-1 combination when the CRM is added (MCA205 fibrosarcoma; figure legend FIG. 7) | Expression of PD-1 (PD-1) | Expression of CTLA-4 (CTLA-4)
O=C(O)CC(O)(C(=O)O)C(O)C(=O)O (stereo not drawn) [HC, hydroxycitrate] | failed to yield convincing evidence | 80% | 16 out of 20 | further enhanced | – | –
O=C1c2c(O)ccc(O)c2C(=O)c2c(NCCNCCO)ccc(NCCNCCO)c21 [MTX, mitoxantrone] | – | – | – | – | No changes | No changes
